{"source": "paper doi:10.1101/2024.02.27.582382", "about": "“Distinct roles of the major binding residues in the cation-binding pocket of MelB” (bioRxiv, 2024)", "key": {"[1]": {"target": "T1, MelBSt (melibiose permease of Salmonella enterica serovar Typhimurium) (Salmonella enterica, UniProt P30878, D55C)", "T1 construct": "gene melB", "T1 sequence (P30878 whole entry D55C)": "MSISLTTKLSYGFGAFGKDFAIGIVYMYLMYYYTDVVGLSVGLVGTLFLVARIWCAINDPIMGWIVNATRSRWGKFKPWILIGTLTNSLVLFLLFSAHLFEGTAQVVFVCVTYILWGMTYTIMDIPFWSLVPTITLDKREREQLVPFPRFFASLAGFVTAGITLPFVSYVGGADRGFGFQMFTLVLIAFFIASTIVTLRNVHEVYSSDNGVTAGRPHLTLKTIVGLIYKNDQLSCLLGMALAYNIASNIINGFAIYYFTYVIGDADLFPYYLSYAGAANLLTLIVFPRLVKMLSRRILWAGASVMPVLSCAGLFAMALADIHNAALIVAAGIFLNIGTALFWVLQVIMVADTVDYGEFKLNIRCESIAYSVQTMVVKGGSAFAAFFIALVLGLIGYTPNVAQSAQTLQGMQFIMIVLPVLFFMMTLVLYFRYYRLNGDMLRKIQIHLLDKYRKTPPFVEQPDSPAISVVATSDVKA", "test": "biochemical", "source_text": "ITC on MelBSt (melibiose permease of Salmonella enterica serovar Typhimurium)"}, "[2]": {"target": "T2, MelBSt (melibiose permease of Salmonella enterica serovar Typhimurium) (Salmonella enterica, UniProt P30878)", "T2 construct": "gene melB; full length, C-terminal His10 tag (plasmid pK95 delta-AH/MelBSt/CHis10), expressed in E. coli DW2; modelled residues 2-454 or 2-456", "T2 sequence (P30878 whole entry, the tested form may be a part)": "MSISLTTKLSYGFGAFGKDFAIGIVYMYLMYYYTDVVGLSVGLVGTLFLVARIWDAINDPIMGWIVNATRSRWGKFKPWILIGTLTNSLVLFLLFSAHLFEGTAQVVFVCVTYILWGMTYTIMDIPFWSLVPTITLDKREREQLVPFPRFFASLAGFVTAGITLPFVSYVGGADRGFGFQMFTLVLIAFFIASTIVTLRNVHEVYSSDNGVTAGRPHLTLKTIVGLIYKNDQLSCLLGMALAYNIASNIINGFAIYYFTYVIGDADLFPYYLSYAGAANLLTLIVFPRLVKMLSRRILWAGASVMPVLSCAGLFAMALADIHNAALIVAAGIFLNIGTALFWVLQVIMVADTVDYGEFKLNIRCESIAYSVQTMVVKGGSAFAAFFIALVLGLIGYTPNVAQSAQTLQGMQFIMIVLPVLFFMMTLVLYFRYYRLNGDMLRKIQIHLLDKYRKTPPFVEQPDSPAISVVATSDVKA", "test": "ITC", "type": "binding", "conditions": "pH 8.5, 25 °C, Na+-free, 20 mM Tris-HCl, 100 mM choline chloride, 0.035% UDM"}, "Asp59": {"target": "Asp59 (UniProt position 59, WDAINDPIMGW)", "test": "ITC", "conditions": "cited from earlier work"}}, "note": "Read-outs that look alike come from different tables or passages of the source.", "data": [{"molecule": "OC[C@H]1O[C@H](OC[C@H]2OC(O)[C@H](O)[C@@H](O)[C@@H]2O)[C@H](O)[C@@H](O)[C@H]1O", "note": "(some centres unmarked) [melibiose]", "values": [{"measurement": "Kd", "setting": "[1]; read-out: Melibiose, pH 7.5, 25 °C, no Na+ or Li+, UDM", "result": "5.82 ± 0.46", "unit": "mM"}, {"measurement": "Kd", "setting": "[2]", "result": "8.5 ± 0.21", "unit": "mM"}]}, {"molecule": "O=[N+]([O-])c1ccc(O[C@H]2O[C@H](CO)[C@H](O)[C@H](O)[C@H]2O)cc1", "note": "[α-NPG, 4-nitrophenyl-α-D-galactopyranoside]", "values": [{"measurement": "Kd", "setting": "[1]", "result": "0.0151 ± 0.00186", "unit": "mM"}]}, {"molecule": "Melibiose permease MelB (MelBSt) (Salmonella enterica serovar Typhimurium)", "values": [{"measurement": "pKa", "setting": "Asp59; absence of melibiose (sugar-free)", "result": 6.25}, {"measurement": "pKa", "setting": "Asp59; presence of melibiose", "result": "approximately 6.5"}]}]}
